The test system of this experiment is tobacco budworm (Heliothis virescens [Fabricius]). As to the kind of experiment: surface-treated diet test against the tobacco budworm. Format: in vivo. Conditions: tobacco budworm second instar larvae, surface-treated diet, 0.25 millimoles of candidate insecticide on the surface of the diet, five-day exposure; for Percent Mortality: compared to total number of insects infested; for Percent Growth Inhibition: inhibition of insect weight relative to untreated controls. The method in brief: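 Wheat germ artificial diet surface-treated with 40 µL of 50 mM DMSO stock diluted 1:7 in 1:1 water/acetone (0.25 millimolar on diet), or sub-multiples for rate tests. One second-instar larva per well, 25° C, 60% RH, 5 days; percent weight inhibition vs DMSO controls and percent mortality.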

`Cn1nnc(-c2ccc(CN3CCC(C(NCc4cccc(Cl)c4)c4ccc(OC(F)(F)F)cc4)CC3)cc2)n1` (centres unmarked) [Compound 310]: the “Percent Mortality” value amounted to 100% and the “Percent Growth Inhibition” value is 100%.
Turning to `Cn1nnc(-c2ccc(CN3CCC(C(NCc4ccc(Cl)cc4)c4ccc(OC(F)(F)F)cc4)CC3)cc2)n1` (centres unmarked) [Compound 311], the “Percent Mortality” value worked out at 100% and the “Percent Growth Inhibition” value came out at 100%.
Consider `Cn1nnc(-c2ccc(CN3CCC(C(NCc4ccc(Br)cc4)c4ccc(OC(F)(F)F)cc4)CC3)cc2)n1` (centres unmarked) [Compound 312], for which the “Percent Mortality” value worked out at 100% and the “Percent Growth Inhibition” value is 100%.
In the case of `Cn1nnc(-c2ccc(CN3CCC(C(NCc4ccccc4F)c4ccc(OC(F)(F)F)cc4)CC3)cc2)n1` (centres unmarked) [Compound 313], the “Percent Mortality” value is 100% and the “Percent Growth Inhibition” value is reported as 100%.
For `Cn1nnc(-c2ccc(CN3CCC(C(NCc4cccc(F)c4)c4ccc(OC(F)(F)F)cc4)CC3)cc2)n1` (centres unmarked) [Compound 314], the “Percent Mortality” value was found to be 100% and the “Percent Growth Inhibition” value was found to be 100%.
Take `Cn1nnc(-c2ccc(CN3CCC(C(NCc4ccc(F)cc4)c4ccc(OC(F)(F)F)cc4)CC3)cc2)n1` (centres unmarked) [Compound 315]: the “Percent Mortality” value is recorded as 100% and the “Percent Growth Inhibition” value was found to be 100%.
Consider `Cn1nnc(-c2ccc(CN3CCC(C(NCc4ccc(I)cc4)c4ccc(OC(F)(F)F)cc4)CC3)cc2)n1` (centres unmarked) [Compound 316], for which the “Percent Mortality” value is 50% and the “Percent Growth Inhibition” value was found to be 100%.
Turning to `Cc1ccc(CNC(c2ccc(OC(F)(F)F)cc2)C2CCN(Cc3ccc(-c4nnn(C)n4)cc3)CC2)cc1` (centres unmarked) [Compound 317], the “Percent Mortality” value is recorded as 100% and the “Percent Growth Inhibition” value is listed as 100%.
Consider `COc1ccc(CNC(c2ccc(OC(F)(F)F)cc2)C2CCN(Cc3ccc(-c4nnn(C)n4)cc3)CC2)cc1` (centres unmarked) [Compound 318], for which the “Percent Mortality” value came to 100% and the “Percent Growth Inhibition” value is reported as 100%.
As to `Cn1nnc(-c2ccc(CN3CCC(C(NCc4ccc(OC(F)(F)F)cc4)c4ccc(OC(F)(F)F)cc4)CC3)cc2)n1` (centres unmarked) [Compound 319], the “Percent Mortality” value was 100% and the “Percent Growth Inhibition” value was 100%.
For the compound `Cn1nnc(-c2ccc(CN3CCC(C(NCc4ccc([N+](=O)[O-])cc4)c4ccc(OC(F)(F)F)cc4)CC3)cc2)n1` (centres unmarked) [Compound 320], the “Percent Mortality” value is listed as 100% and the “Percent Growth Inhibition” value is reported as 100%.
In the case of `Cn1nnc(-c2ccc(CN3CCC(C(NC(=O)c4ccccc4)c4ccc(OC(F)(F)F)cc4)CC3)cc2)n1` (centres unmarked) [Compound 321], the “Percent Mortality” value was 17% and the “Percent Growth Inhibition” value was determined as 95%.
Consider `Cn1nnc(-c2ccc(CN3CCC(C(NC(=O)c4ccccc4Cl)c4ccc(OC(F)(F)F)cc4)CC3)cc2)n1` (centres unmarked) [Compound 322], for which the “Percent Mortality” value was found to be 0% and the “Percent Growth Inhibition” value worked out at 78%.
`Cn1nnc(-c2ccc(CN3CCC(C(NC(=O)c4cccc(Cl)c4)c4ccc(OC(F)(F)F)cc4)CC3)cc2)n1` (centres unmarked) [Compound 323]: the “Percent Mortality” value stood at 67% and the “Percent Growth Inhibition” value is 98%.
As to `Cn1nnc(-c2ccc(CN3CCC(C(NC(=O)c4ccc(Cl)cc4)c4ccc(OC(F)(F)F)cc4)CC3)cc2)n1` (centres unmarked) [Compound 324], the “Percent Mortality” value was 83% and the “Percent Growth Inhibition” value was 99%.
As to `Cn1nnc(-c2ccc(CN3CCC(C(NC(=O)c4ccc(Br)cc4)c4ccc(OC(F)(F)F)cc4)CC3)cc2)n1` (centres unmarked) [Compound 325], the “Percent Mortality” value is on record as 50% and the “Percent Growth Inhibition” value was found to be 100%.
Take `Cn1nnc(-c2ccc(CN3CCC(C(NC(=O)c4ccccc4F)c4ccc(OC(F)(F)F)cc4)CC3)cc2)n1` (centres unmarked) [Compound 326]: the “Percent Mortality” value was found to be 0% and the “Percent Growth Inhibition” value is on record as 93%.
Turning to `Cn1nnc(-c2ccc(CN3CCC(C(NC(=O)c4cccc(F)c4)c4ccc(OC(F)(F)F)cc4)CC3)cc2)n1` (centres unmarked) [Compound 327], the “Percent Mortality” value was 0% and the “Percent Growth Inhibition” value amounted to 99%.
Take `Cn1nnc(-c2ccc(CN3CCC(C(NC(=O)c4ccc(F)cc4)c4ccc(OC(F)(F)F)cc4)CC3)cc2)n1` (centres unmarked) [Compound 328]: the “Percent Mortality” value is 0% and the “Percent Growth Inhibition” value is 95%.
Take `Cn1nnc(-c2ccc(CN3CCC(C(NC(=O)c4ccc(I)cc4)c4ccc(OC(F)(F)F)cc4)CC3)cc2)n1` (centres unmarked) [Compound 329]: the “Percent Mortality” value worked out at 50% and the “Percent Growth Inhibition” value was 99%.
In the case of `Cc1ccc(C(=O)NC(c2ccc(OC(F)(F)F)cc2)C2CCN(Cc3ccc(-c4nnn(C)n4)cc3)CC2)cc1` (centres unmarked) [Compound 330], the “Percent Mortality” value was found to be 33% and the “Percent Growth Inhibition” value was determined as 89%.
The matching figures for `COc1ccc(C(=O)NC(c2ccc(OC(F)(F)F)cc2)C2CCN(Cc3ccc(-c4nnn(C)n4)cc3)CC2)cc1` (centres unmarked) [Compound 331]: 67% and 98%.
Turning to `Cn1nnc(-c2ccc(CN3CCC(C(NC(=O)c4ccc(OC(F)(F)F)cc4)c4ccc(OC(F)(F)F)cc4)CC3)cc2)n1` (centres unmarked) [Compound 332], the “Percent Mortality” value is on record as 100% and the “Percent Growth Inhibition” value is 100%.
Take `Cn1nnc(-c2ccc(CN3CCC(C(NC(=O)c4ccc([N+](=O)[O-])cc4)c4ccc(OC(F)(F)F)cc4)CC3)cc2)n1` (centres unmarked) [Compound 333]: the “Percent Mortality” value is 17% and the “Percent Growth Inhibition” value stood at 99%.
In the case of `Cn1nnc(-c2ccc(CN3CCC(C(NC(=O)Nc4ccccc4Cl)c4ccc(OC(F)(F)F)cc4)CC3)cc2)n1` (centres unmarked) [Compound 334], the “Percent Mortality” value is listed as 100% and the “Percent Growth Inhibition” value is given as 100%.
As to `Cn1nnc(-c2ccc(CN3CCC(C(NC(=O)Nc4cccc(Cl)c4)c4ccc(OC(F)(F)F)cc4)CC3)cc2)n1` (centres unmarked) [Compound 335], the “Percent Mortality” value is 100% and the “Percent Growth Inhibition” value is 100%.
In the case of `Cn1nnc(-c2ccc(CN3CCC(C(NC(=O)Nc4ccc(Cl)cc4)c4ccc(OC(F)(F)F)cc4)CC3)cc2)n1` (centres unmarked) [Compound 336], the “Percent Mortality” value is 100% and the “Percent Growth Inhibition” value came to 100%.
`Cn1nnc(-c2ccc(CN3CCC(C(NC(=O)Nc4ccc(Br)cc4)c4ccc(OC(F)(F)F)cc4)CC3)cc2)n1` (centres unmarked) [Compound 337]: the “Percent Mortality” value is 100% and the “Percent Growth Inhibition” value is recorded as 100%.
With `Cn1nnc(-c2ccc(CN3CCC(C(NC(=O)Nc4ccccc4F)c4ccc(OC(F)(F)F)cc4)CC3)cc2)n1` (centres unmarked) [Compound 338], the “Percent Mortality” value was determined as 100% and the “Percent Growth Inhibition” value is on record as 100%.
As to `Cn1nnc(-c2ccc(CN3CCC(C(NC(=O)Nc4cccc(F)c4)c4ccc(OC(F)(F)F)cc4)CC3)cc2)n1` (centres unmarked) [Compound 339], the “Percent Mortality” value came out at 50% and the “Percent Growth Inhibition” value is 100%.
Regarding `Cn1nnc(-c2ccc(CN3CCC(C(NC(=O)Nc4ccc(F)cc4)c4ccc(OC(F)(F)F)cc4)CC3)cc2)n1` (centres unmarked) [Compound 340], the “Percent Mortality” value is recorded as 83% and the “Percent Growth Inhibition” value is listed as 100%.
`Cn1nnc(-c2ccc(CN3CCC(C(NC(=O)Nc4ccc(I)cc4)c4ccc(OC(F)(F)F)cc4)CC3)cc2)n1` (centres unmarked) [Compound 341]: the “Percent Mortality” value is 100% and the “Percent Growth Inhibition” value is on record as 100%.
Turning to `Cc1ccc(NC(=O)NC(c2ccc(OC(F)(F)F)cc2)C2CCN(Cc3ccc(-c4nnn(C)n4)cc3)CC2)cc1` (centres unmarked) [Compound 342], the “Percent Mortality” value turned out to be 100% and the “Percent Growth Inhibition” value came out at 100%.
For the compound `COc1ccc(NC(=O)NC(c2ccc(OC(F)(F)F)cc2)C2CCN(Cc3ccc(-c4nnn(C)n4)cc3)CC2)cc1` (centres unmarked) [Compound 343], the “Percent Mortality” value was determined as 100% and the “Percent Growth Inhibition” value is reported as 100%.
With `Cn1nnc(-c2ccc(CN3CCC(C(NC(=O)Nc4ccc(C(F)(F)F)cc4)c4ccc(OC(F)(F)F)cc4)CC3)cc2)n1` (centres unmarked) [Compound 344], the “Percent Mortality” value amounted to 100% and the “Percent Growth Inhibition” value is listed as 100%.
For the compound `Cn1nnc(-c2ccc(CN3CCC(C(NC(=O)Nc4ccc(OC(F)(F)F)cc4)c4ccc(OC(F)(F)F)cc4)CC3)cc2)n1` (centres unmarked) [Compound 345], the “Percent Mortality” value was 100% and the “Percent Growth Inhibition” value is given as 100%.
Regarding `Cn1nnc(-c2ccc(CN3CCC(C(NC(=O)Nc4ccc([N+](=O)[O-])cc4)c4ccc(OC(F)(F)F)cc4)CC3)cc2)n1` (centres unmarked) [Compound 346], the “Percent Mortality” value stood at 100% and the “Percent Growth Inhibition” value worked out at 100%.
On to `Cn1nnc(-c2ccc(CN3CCC(C(NC(=O)Oc4ccccc4Cl)c4ccc(OC(F)(F)F)cc4)CC3)cc2)n1` (centres unmarked) [Compound 347], for which the “Percent Mortality” value is 83% and the “Percent Growth Inhibition” value came out at 100%.
Take `Cn1nnc(-c2ccc(CN3CCC(C(NC(=O)Oc4cccc(Cl)c4)c4ccc(OC(F)(F)F)cc4)CC3)cc2)n1` (centres unmarked) [Compound 348]: the “Percent Mortality” value came out at 100% and the “Percent Growth Inhibition” value worked out at 100%.
`Cn1nnc(-c2ccc(CN3CCC(C(NC(=O)Oc4ccc(Cl)cc4)c4ccc(OC(F)(F)F)cc4)CC3)cc2)n1` (centres unmarked) [Compound 349]: the “Percent Mortality” value amounted to 100% and the “Percent Growth Inhibition” value is 100%.
As to `Cn1nnc(-c2ccc(CN3CCC(C(NC(=O)Oc4ccc(Br)cc4)c4ccc(OC(F)(F)F)cc4)CC3)cc2)n1` (centres unmarked) [Compound 350], the “Percent Mortality” value is given as 100% and the “Percent Growth Inhibition” value amounted to 100%.
As to `Cn1nnc(-c2ccc(CN3CCC(C(NC(=O)Oc4ccccc4F)c4ccc(OC(F)(F)F)cc4)CC3)cc2)n1` (centres unmarked) [Compound 351], the “Percent Mortality” value was determined as 50% and the “Percent Growth Inhibition” value is on record as 100%.
Consider `Cn1nnc(-c2ccc(CN3CCC(C(NC(=O)Oc4cccc(F)c4)c4ccc(OC(F)(F)F)cc4)CC3)cc2)n1` (centres unmarked) [Compound 352], for which the “Percent Mortality” value was 83% and the “Percent Growth Inhibition” value amounted to 100%.
